PMC6272861, “In Vitro Inhibition of Human UDP-Glucuronosyl-Transferase (UGT) Isoforms by Astaxanthin, β-Cryptoxanthin, Canthaxanthin, Lutein, and Zeaxanthin: Prediction of in Vivo Dietary Supplement-Drug Interactions” (Molecules, 2016)
Read-outs that look alike come from different tables or passages of the source.

Key:
UGT2B7 = molecular target: T1, UGT2B7 (Homo sapiens, UniProt P16662); assay: Inhibition of UGT2B7 (zidovudine-5′-glucuronidation) in human liver microsomes; conditions: for Residual UGT2B7 enzyme activity: highest tested concentration 50 μM
T1 sequence (P16662 24-529): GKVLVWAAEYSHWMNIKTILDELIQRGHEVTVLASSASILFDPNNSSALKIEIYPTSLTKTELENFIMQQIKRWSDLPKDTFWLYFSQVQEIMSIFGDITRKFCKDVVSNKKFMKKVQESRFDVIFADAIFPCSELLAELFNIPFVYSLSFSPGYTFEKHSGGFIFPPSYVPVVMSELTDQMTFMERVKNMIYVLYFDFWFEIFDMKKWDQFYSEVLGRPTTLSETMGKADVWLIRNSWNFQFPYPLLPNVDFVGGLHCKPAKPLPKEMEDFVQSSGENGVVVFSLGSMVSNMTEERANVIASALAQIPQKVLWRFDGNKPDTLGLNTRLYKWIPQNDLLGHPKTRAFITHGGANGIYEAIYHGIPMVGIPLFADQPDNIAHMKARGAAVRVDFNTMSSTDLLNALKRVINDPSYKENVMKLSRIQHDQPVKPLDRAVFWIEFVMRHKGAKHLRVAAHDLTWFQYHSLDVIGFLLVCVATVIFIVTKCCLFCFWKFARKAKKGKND

UGT1A9 = molecular target: T2, UGT1A9 (Homo sapiens, UniProt O60656); assay: Inhibition of UGT1A9 (propofol-O-glucuronidation) in human liver microsomes; conditions: for Residual UGT1A9 enzyme activity: highest tested concentration 50 μM
T2 sequence (O60656 26-530): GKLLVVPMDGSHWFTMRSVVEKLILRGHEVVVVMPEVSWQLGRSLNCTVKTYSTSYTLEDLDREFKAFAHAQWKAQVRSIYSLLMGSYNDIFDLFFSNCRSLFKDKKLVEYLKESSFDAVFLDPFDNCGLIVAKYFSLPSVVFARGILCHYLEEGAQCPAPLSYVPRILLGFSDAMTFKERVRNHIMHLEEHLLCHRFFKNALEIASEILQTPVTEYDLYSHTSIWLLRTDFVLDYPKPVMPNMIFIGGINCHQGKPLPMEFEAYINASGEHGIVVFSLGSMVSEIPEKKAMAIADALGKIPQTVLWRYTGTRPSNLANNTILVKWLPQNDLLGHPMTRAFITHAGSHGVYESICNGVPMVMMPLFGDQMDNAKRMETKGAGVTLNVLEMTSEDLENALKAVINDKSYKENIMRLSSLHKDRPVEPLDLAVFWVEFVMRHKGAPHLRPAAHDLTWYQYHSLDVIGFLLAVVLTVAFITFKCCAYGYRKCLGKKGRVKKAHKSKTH

UGT2B15 = molecular target: T3, UGT2B15 (Homo sapiens, UniProt P54855); assay: Inhibition of UGT2B15 (4-methylumbelliferyl glucuronidation) in recombinant human UGT2B15 supersomes; type: in vitro ADME
T3 construct: purchased Corning Life Sciences
T3 sequence (P54855 24-530): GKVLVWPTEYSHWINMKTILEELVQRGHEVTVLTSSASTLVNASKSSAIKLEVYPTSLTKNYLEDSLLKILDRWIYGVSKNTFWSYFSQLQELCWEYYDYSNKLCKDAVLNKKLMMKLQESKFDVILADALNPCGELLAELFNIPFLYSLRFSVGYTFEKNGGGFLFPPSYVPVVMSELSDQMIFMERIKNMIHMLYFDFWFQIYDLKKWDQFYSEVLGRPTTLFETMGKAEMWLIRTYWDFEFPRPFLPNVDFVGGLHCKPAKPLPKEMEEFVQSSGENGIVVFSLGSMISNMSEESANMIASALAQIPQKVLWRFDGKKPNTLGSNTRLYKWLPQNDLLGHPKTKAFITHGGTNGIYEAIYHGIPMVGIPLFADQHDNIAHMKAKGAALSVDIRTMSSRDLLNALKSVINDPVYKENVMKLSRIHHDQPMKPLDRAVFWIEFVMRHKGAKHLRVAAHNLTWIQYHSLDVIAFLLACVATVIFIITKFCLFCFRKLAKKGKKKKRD
Description: Although S-oxazepam is a typical substrate of UGT2B15 of human liver microsomes, authentic S-oxazepam and the corresponding glucuronide are not commercially […]. Thus, the inhibition of AS, βC, CA, LU, and ZE on the UGT2B15 activity was assessed using 4-methylumbelliferone as the nonspecific probe substrate for all UGTs except UGT1A4 [34] in recombinant human UGT2B15 supersomes.
The reaction was initiated by addition of 10 µL 5 mM UDPGA (to 100 µL total volume) followed by incubation for 120 min at 37 °C in a shaking water bath. Reactions were stopped by addition of 50 µL of ice-cold acetonitrile containing chlorpropamide (300 ng/mL) as an internal standard, and they were chilled and centrifuged (13,000 g, 15 min, 4 °C). An aliquot of 5 μL of supernatant was injected into an LC-MS/MS system. Additionally, identical parallel incubation samples containing a known UGT2B15 inhibitor amitriptyine (0–200 μM) was included as a positive control for UGT2B15.
For visual inspection, data were presented as Dixon plots.

UGT1A3 = molecular target: T4, UGT1A3 (Homo sapiens, UniProt P35503); assay: Inhibition of UGT1A3 (chenodeoxycholic acid 24-acyl-β-D-glucuronidation) in human liver microsomes; conditions: for Residual UGT1A3 enzyme activity: highest tested concentration 50 μM
T4 sequence (P35503 29-534): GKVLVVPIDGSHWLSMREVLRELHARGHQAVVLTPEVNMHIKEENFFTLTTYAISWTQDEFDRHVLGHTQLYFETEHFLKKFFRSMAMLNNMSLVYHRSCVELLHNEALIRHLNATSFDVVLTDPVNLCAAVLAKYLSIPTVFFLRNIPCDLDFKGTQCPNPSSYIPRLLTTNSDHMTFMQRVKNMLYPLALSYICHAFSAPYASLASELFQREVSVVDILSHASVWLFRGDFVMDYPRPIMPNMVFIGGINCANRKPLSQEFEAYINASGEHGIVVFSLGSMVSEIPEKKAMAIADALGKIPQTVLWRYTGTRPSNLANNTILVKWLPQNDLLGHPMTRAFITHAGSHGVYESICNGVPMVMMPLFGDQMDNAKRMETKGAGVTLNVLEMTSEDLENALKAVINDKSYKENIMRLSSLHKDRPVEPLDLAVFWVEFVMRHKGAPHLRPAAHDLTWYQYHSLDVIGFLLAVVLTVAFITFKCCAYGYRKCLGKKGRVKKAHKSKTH

[1] = read-out: IC50 towards UGT2B7, human liver microsomes, 100 μM zidovudine, mean ± SD of triplicate
[2] = read-out: IC50 towards UGT1A9, human liver microsomes, 100 μM propofol, mean ± SD of triplicate
[3] = recombinant UGT2B15 supersomes, 250 μM 4-methylumbelliferone, mean ± SD of triplicate, read-out: IC50 towards UGT2B15
[4] = read-out: IC50 towards UGT1A3, human liver microsomes, 15 μM chenodeoxycholic acid, mean ± SD of triplicate

| Compound | IC50 (UGT2B7) | Residual UGT2B7 enzyme activity (UGT2B7; human liver microsomes) | IC50 (UGT1A9) | Residual UGT1A9 enzyme activity (UGT1A9; human liver microsomes) | IC50 (UGT2B15) | IC50 (UGT1A3) | Residual UGT1A3 enzyme activity (UGT1A3; human liver microsomes) | IC50 (UGT2B7; [1]) | IC50 (UGT1A9; [2]) | IC50 (UGT2B15; [3]) | IC50 (UGT1A3; [4]) |
| --- | --- | --- | --- | --- | --- | --- | --- | --- | --- | --- | --- |
| CC1=C(/C=C/C(C)=C/C=C/C(C)=C/C=C/C=C(C)/C=C/C=C(C)/C=C/C2=C(C)C(=O)[C@@H](O)CC2(C)C)C(C)(C)C[C@H](O)C1=O [AS, astaxanthin] | > 50 µM | greater than 80% | > 50 µM | greater than 80% | > 50 µM | > 50 µM | greater than 80% |  |  |  |  |
| CC1=C(/C=C/C(C)=C/C=C/C(C)=C/C=C/C=C(C)/C=C/C=C(C)/C=C/C2=C(C)C(=O)CCC2(C)C)C(C)(C)CCC1=O [CA, canthaxanthin] |  |  |  |  |  |  |  | > 50 µM | > 50 µM | > 50 µM | 41.2 ± 3.14 µM |
| CC1=C(/C=C/C(C)=C/C=C/C(C)=C/C=C/C=C(C)/C=C/C=C(C)/C=C/C2=C(C)C[C@@H](O)CC2(C)C)C(C)(C)CCC1 [βC, β-cryptoxanthin] |  |  |  |  |  |  |  | > 50 µM | > 50 µM | > 50 µM | 28.3 ± 4.4 µM |

Now from value to compound, other results behind:

| IC50 (UGT2B7) | Residual UGT2B7 enzyme activity (UGT2B7; human liver microsomes) | IC50 (UGT1A9) | Residual UGT1A9 enzyme activity (UGT1A9; human liver microsomes) | IC50 (UGT2B15) | IC50 (UGT1A3) | Residual UGT1A3 enzyme activity (UGT1A3; human liver microsomes) | Compound | IC50 (UGT2B7; [1]) | IC50 (UGT1A9; [2]) | IC50 (UGT2B15; [3]) | IC50 (UGT1A3; [4]) |
| --- | --- | --- | --- | --- | --- | --- | --- | --- | --- | --- | --- |
| > 50 µM | greater than 80% | > 50 µM | greater than 80% | > 50 µM | > 50 µM | 64.2% | CC1=C(/C=C/C(C)=C/C=C/C(C)=C/C=C/C=C(C)/C=C/C=C(C)/C=C/C2=C(C)C[C@@H](O)CC2(C)C)C(C)(C)C[C@H](O)C1 [ZE, zeaxanthin] |  |  |  |  |
| > 50 µM |  | > 50 µM |  | > 50 µM | > 50 µM |  | CC1=C[C@H](O)CC(C)(C)[C@H]1/C=C/C(C)=C/C=C/C(C)=C/C=C/C=C(C)/C=C/C=C(C)/C=C/C1=C(C)C[C@@H](O)CC1(C)C [LU, lutein] |  |  |  |  |
